Where “and” joins values, the source holds several entries; their conditions need not be identical. Equal values may be shown once.
What was measured:
[1] = target: T1, mDOR (Mus musculus, UniProt P32300); assay: CAMYEL BRET cAMP agonist assay at mDOR; format: cell-based; settings: for Agonist activity of 7OH analogs at mDOR: single replicate values, Supplementary Figure 7B
T1 construct: expressed in transfected cells

[2] = target: T2, mMOR (Mus musculus, UniProt P42866); assay: CAMYEL BRET antagonism assay at mMOR (inhibition of DAMGO); format: cell-based; settings: for Antagonist activity at mMOR, raw signal (single replicate values): source data of Fig 8a and Table 5, listed as C11-Cl-7OH (23);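 on Antagonist activity at mMOR, raw signal (single replicate values): BRET signal rises as cAMP falls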
T2 construct: signal peptide (heterologous, not specified) (N); expressed in transfected cells; pcDNA3.1(+) construct made in house

[3] = tested on: CD1 mice; assay: Tail-flick antinociception in CD1 mice; format: in vivo, mouse; settings: 5 or 25 mg/kg s.c., CD1 mice, time course
[4] = target: hKOR (Homo sapiens, UniProt P41145); assay: CAMYEL BRET cAMP agonist assay at hKOR; format: cell-based; settings: individual replicates, Supplementary Figure 8A source data
[5] = target: T2, mMOR; assay: [125I]BNtxA radioligand competition binding, mouse MOR; settings: mean ± SEM, n = 3; [125I]BNtxA; read-out: Ki ± SEM mMOR
[6] = target: T3, hMOR (Homo sapiens, UniProt P35372); assay: cell-based
T3 construct: expressed in transfected cells; plasmid a gift from Dr. Nevin Lambert

[7] = target: T3, hMOR; assay: CAMYEL BRET cAMP agonist assay at hMOR; format: cell-based; settings: for cAMP %: hMOR, single replicates, source data Fig 6c, listed as C11-Cl-7OH (23)

Chain of hKOR (P41145 whole entry): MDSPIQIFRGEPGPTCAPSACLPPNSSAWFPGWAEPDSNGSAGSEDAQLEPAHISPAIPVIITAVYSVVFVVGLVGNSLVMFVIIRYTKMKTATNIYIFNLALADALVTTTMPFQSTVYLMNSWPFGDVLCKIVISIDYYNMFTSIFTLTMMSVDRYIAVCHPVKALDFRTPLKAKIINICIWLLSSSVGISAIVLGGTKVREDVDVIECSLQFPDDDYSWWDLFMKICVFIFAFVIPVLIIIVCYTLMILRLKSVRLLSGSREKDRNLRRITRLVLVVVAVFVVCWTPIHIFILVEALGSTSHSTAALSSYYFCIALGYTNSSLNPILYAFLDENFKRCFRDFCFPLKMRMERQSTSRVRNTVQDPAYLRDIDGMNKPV
T1 sequence (P32300 whole entry): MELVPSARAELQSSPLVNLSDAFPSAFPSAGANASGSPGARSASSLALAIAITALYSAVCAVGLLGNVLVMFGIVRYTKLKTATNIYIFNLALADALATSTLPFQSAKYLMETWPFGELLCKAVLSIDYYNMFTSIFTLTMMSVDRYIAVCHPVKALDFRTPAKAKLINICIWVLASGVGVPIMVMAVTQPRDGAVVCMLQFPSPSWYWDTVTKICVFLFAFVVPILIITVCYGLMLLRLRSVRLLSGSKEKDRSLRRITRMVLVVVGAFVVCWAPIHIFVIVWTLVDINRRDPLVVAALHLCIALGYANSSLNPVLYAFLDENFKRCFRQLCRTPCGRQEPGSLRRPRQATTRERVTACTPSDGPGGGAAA
T3 sequence (P35372 whole entry): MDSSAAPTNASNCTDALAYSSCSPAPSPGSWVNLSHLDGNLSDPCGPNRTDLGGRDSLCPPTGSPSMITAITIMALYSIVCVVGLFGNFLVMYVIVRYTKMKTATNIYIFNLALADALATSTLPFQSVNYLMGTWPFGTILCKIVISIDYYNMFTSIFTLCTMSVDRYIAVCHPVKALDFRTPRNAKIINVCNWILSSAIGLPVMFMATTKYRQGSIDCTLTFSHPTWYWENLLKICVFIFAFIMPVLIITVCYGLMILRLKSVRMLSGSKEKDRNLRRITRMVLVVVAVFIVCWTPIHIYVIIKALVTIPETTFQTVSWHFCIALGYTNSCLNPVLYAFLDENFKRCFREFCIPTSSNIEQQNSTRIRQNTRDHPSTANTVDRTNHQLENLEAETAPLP
T2 sequence (P42866 whole entry): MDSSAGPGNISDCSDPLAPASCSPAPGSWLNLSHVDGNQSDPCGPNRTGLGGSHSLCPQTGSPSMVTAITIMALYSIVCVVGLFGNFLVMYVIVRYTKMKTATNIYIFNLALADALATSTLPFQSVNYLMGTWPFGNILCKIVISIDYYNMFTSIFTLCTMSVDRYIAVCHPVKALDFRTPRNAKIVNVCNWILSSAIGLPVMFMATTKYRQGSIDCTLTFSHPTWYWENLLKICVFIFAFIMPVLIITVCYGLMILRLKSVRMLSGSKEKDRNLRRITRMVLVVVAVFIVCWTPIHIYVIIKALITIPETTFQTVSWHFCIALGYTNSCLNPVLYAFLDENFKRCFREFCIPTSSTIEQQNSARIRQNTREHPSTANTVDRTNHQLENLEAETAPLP

CC[C@@H]1CN2CC[C@@]3(O)C(=Nc4cc(Cl)cc(OC)c43)[C@@H]2C[C@@H]1/C(=C\OC)C(=O)OC [11-Cl-7OH (23), 11-Cl-7OH]
Agonist activity of 7OH analogs at mDOR ([1]; Log[drug] (M) -9): 33.463 and 29.5442 and 24.9953 and 13.5309 and 13.5578 and 8.893 and 29.4233
Agonist activity of 7OH analogs at mDOR ([1]; Log[drug] (M) -10): 24.7821 and 18.2952 and 15.7891 and -5.277 and 4.222 and 6.7221 and 13.4439 and 1.454 and 8.443
Agonist activity of 7OH analogs at mDOR ([1]; Log[drug] (M) -11): 28.0105 and 19.9828 and 19.4476 and 11.3847 and -1.66 and -5.157 and 5.226 and 0.03212 and 8.89
Agonist activity of 7OH analogs at mDOR ([1]; Log[drug] (M) -13): -1.931 and 4.676 and 0.1543 and -4.31 and 4.156 and 0.5113 and 7.987 and 3.883
Emax ([1]; mDOR cAMP BRET, positive control DPDPE): very low efficacy
IC50 [2]: 320 nM
Antagonist activity at mMOR, raw signal (single replicate values) ([2]; Log[drug] (M) -5): 0.05136 and 0.05514 and 0.02734 and 0.03399 and 0.05638 and 0.03174 and 0.0604 and 0.04123 and 0.04243
Antagonist activity at mMOR, raw signal (single replicate values) ([2]; Log[drug] (M) -6): 0.06527 and 0.08059 and 0.08038 and 0.07596 and 0.06694 and 0.07308 and 0.08894 and 0.05009 and 0.07552
Antagonist activity at mMOR, raw signal (single replicate values) ([2]; Log[drug] (M) -7): 0.171 and 0.1656 and 0.1405 and 0.1722 and 0.164 and 0.1548 and 0.1502 and 0.1538 and 0.167
Antagonist activity at mMOR, raw signal (single replicate values) ([2]; Log[drug] (M) -8): 0.2056 and 0.1941 and 0.1944 and 0.1853 and 0.1938 and 0.208 and 0.1628 and 0.1712 and 0.1714
Antagonist activity at mMOR, raw signal (single replicate values) ([2]; Log[drug] (M) -9): 0.1978 and 0.1907 and 0.2036 and 0.185 and 0.2114 and 0.2034 and 0.1755 and 0.1681 and 0.1723
Antagonist activity at mMOR, raw signal (single replicate values) ([2]; Log[drug] (M) -10): 0.2063 and 0.2294 and 0.2076 and 0.2027 and 0.2013 and 0.2029 and 0.1793 and 0.1909 and 0.175
Antagonist activity at mMOR, raw signal (single replicate values) ([2]; Log[drug] (M) -11): 0.1963 and 0.2104 and 0.2086 and 0.1881 and 0.2054 and 0.206 and 0.1763 and 0.1632 and 0.1788
analgesic effect in tail-flick [3]: no analgesic effect
Agonist activity of 7OH analogs at hKOR ([4]; Log [drug](M) -5): 9.026 and -5.895 and 4.248 and 11.9704 and 8.484 and 2.501 and -3.893 and 6.434 and -2.541
Agonist activity of 7OH analogs at hKOR ([4]; Log [drug](M) -6): -2.414 and -2.835 and -8.98 and 12.2163 and 1.484 and -5.782 and -0.574 and -6.895 and -9.704
Agonist activity of 7OH analogs at hKOR ([4]; Log [drug](M) -7): -11.1771 and -3.626 and -0.5883 and -1.763 and -7.04 and -2.623 and -4.522 and -13.931 and 0.01935
Agonist activity of 7OH analogs at hKOR ([4]; Log [drug](M) -8): 2.99 and -4.136 and 1.141 and -3.765 and -7.282 and -9.586 and -2.533 and -2.303 and 3.7063
Agonist activity of 7OH analogs at hKOR ([4]; Log [drug](M) -9): -6.592 and -11.4451 and 3.708 and 3.417 and -6.737 and -11.3529 and 17.5943 and 11.6069 and 9.781
Agonist activity of 7OH analogs at hKOR ([4]; Log [drug](M) -10): -2.387 and -3.9069 and 3.049 and -10.4557 and -1.189 and 2.17 and 4.733 and 0.5961 and 8.633
Agonist activity of 7OH analogs at hKOR ([4]; Log [drug](M) -11): 8.282 and -7.987 and 6.107 and 1.524 and -1.1871 and -6.8877 and 2.73 and 5.876 and 10.03
Agonist activity of 7OH analogs at hKOR ([4]; Log [drug](M) -13): 4.46 and -4.721 and 0.2615 and 1.311 and -2.987 and 1.677 and 6.874 and 5.681 and 9.762
Ki [5]: 27.1 ± 1.1 nM
IC50 [6]: 920 nM
EC50 [7]: 717 nM
Emax [7]: 23%
cAMP % ([7]; Log[drug] (M) -5): 24.2611% and 22.8658% and 18.7916% and 30.0534% and 27.3903% and 24.7857% and 23.2679% and 13.839% and 17.3142%
cAMP % ([7]; Log[drug] (M) -6): 9.687% and 7.44% and 12.4984% and 21.3658% and 16.0104% and 20.3589% and 22.2511% and 5.161% and 10.3498%
cAMP % ([7]; Log[drug] (M) -7): 10.7608% and 2.692% and 16.2864% and 16.6401% and 9.757% and 17.1458% and 11.7292% and -1.4445% and 4.302%
cAMP % ([7]; Log[drug] (M) -8): -0.5618% and -5.878% and 6.44% and 1.224% and 16.3686% and 4.4% and 2.431% and 4.114% and 14.2353%
cAMP % ([7]; Log[drug] (M) -9): 10.2691% and 5.0211% and 7.383% and 19.7872% and -6.277% and -5.837% and 8.258% and 7.437% and 22.4848%
cAMP % ([7]; Log[drug] (M) -10): 8.636% and -0.2251% and 3.667% and 1.365% and 3.739% and -5.1037% and -3.2997% and -3.028% and 15.0493%
cAMP % ([7]; Log[drug] (M) -11): 5.568% and -0.09872% and -1.208% and 11.7024% and 0.1582% and 4.468% and 2.344% and 1.001% and -3.345%
cAMP % ([7]; Log[drug] (M) -13, cAMP inhibition as % of DAMGO): 15.4388% and 3.989% and -0.7984% and 3.857% and -0.6743% and 5.111% and -4.4777% and 4.879% and 4.064%
